Test results taken from patent US20240124520A1, “N-ACYLATED HISTIDINE DIPEPTIDES AS ANTICANCER AGENTS” (THE BOARD OF TRUSTEES OF THE LELAND STANFORD JUNIOR …, priority 2019, published 2024).
pIC50: −log10 of the molar value. Non-standard residues stand in square brackets, D forms with d. Residues, ends and D or L forms follow the SMILES beside them. *: point of attachment. Palmitoyl = CCCCCCCCCCCCCCCC(=O)*

What was measured:
Assay type in all cases: cell-based
[1] = system: MDA-MB-231 triple-negative human breast cancer cells; assay: Cell Titer Blue in vitro cell viability assay, MDA-MB-231; settings: MDA-MB-231, 72 h, 3 days at 37° C.
Method: FIG. 1: Dose Response curve for MBC017 with MDA-MB-231 cells. Compound MBC017 was incubated with MDA-MB-231 triple-negative human breast cancer cells at the indicated concentrations for 3 days at 37° C. prior to Cell Titer Blue fluorescence-based cell viability assay. Normalized cell viability data, expressed as a percentage, are averaged from three biological replicates and standard error represented by error bars for each averaged data point (empty squares). The compound concentrations are represented on log scale on the x-axis in μM units. Data were analyzed using free software called DrFit, as described in Nature Scientific Reports, Article number: 14701, (2015). […] The data were not sufficient to calculate an accurate IC50 value.
A commercially available in vitro cell viability reagent (Cell Titer Blue) was employed to determine the anti-cancer effectiveness of several compounds (1-5) against multiple cancer and healthy tissue-derived cell lines. Cell lines are summarized in Table 2, as follows: All cell lines and information on each cell lines origins and characteristics were procured from ATCC (www.atcc.org). Common names and ATCC product IDs are shown in the first (leftmost) column. From the left, the second and third columns describe the organism and tissue from which each cell line was isolated. The fourth and fifth columns indicate the cell type and disease status (e.g. normal versus carcinoma) of each cell line. The sixth column provides a summary of what compounds were tested against each cell line using an in vitro cell viability assay. Peptide name IDs are shown in parenthesis for each compound, numbered 1 through 5.
The Cell Titer Blue reagent (available from Promega, Inc.) is a buffered solution containing resazurin, a compound that is converted to resorufin, a detectable fluorescent product, by metabolically active cells. The fluorescence intensity of resorufin product therefore serves as a proportional measure of the number of viable cells, permitting changes in cell viability within cancer or other cell lines to be monitored in response to the addition of cytotoxic or cytostatic agents. Various human breast tissue-derived cell lines are widely employed to study the effects of potential therapeutics against breast cancer in vitro. Human breast cancer cell lines may be subdivided into groups based upon hormone receptor status, i.e. estrogen, progesterone and human epidermal growth factor positive or negative. A healthy human breast tissue-derived cell line, hTERT-HME1 may be used to determine the effect of therapeutic agents on healthy human breast tissue in vitro. Additionally, a highly metastatic and aggressive murine (mouse) breast cancer cell line, 4T1, has been extensively used to monitor breast cancer metastasis from the mammary fat pads of mice to the lungs in order to systematically survey the anti-metastatic effectiveness of anti-cancer therapeutics in an in vivo animal model. Metastases to the lungs may be conveniently quantified by a well-established clonogenic assay. Other human tissue-derived model cell lines, representative of various cancers, other than breast cancer, may be utilized to assess the potential of anti-cancer compounds in vitro. These include, K-562 (chronic myelogenous leukemia), HEPG2 (hepatocellular carcinoma), OVCAR-3 (ovarian adenocarcinoma), SK—N—SH (neuroblastoma) and A549 (lung carcinoma). Several compounds were assayed in vitro using the Cell Titer Blue viability assay against an array of cancer cell lines of both human and murine origin plus one healthy human breast cell line (Table 1, FIGS. 1-16). A mouse 4T1 metastasis study was performed to determine the anti-metastatic potential of one compound, MBC0179 (FIG. 17).
Dimethyl sulfoxide (DMSO), Cremophor EL, methylene blue, 100× antibiotic/antimycotic solution, collagenase (Type IV), DNAse I and 6-thioguanine were available from Millipore-Sigma. […]

[2] = system: MDA-MB-468 triple-negative human breast cancer cells; assay: Cell Titer Blue in vitro cell viability assay, MDA-MB-468; settings: 72 h, MDA-MB-468 (DMEM), 3 days at 37° C.
Method: (§1) FIG. 9: Dose Response curve for MBC0179 with MDA-MB-468 cells. Compound MBC0179 was incubated with MDA-MB-468 triple-negative human breast cancer cells at the indicated concentrations for 3 days at 37° C. prior to Cell Titer Blue fluorescence-based cell viability assay. Normalized cell viability data, expressed as a percentage, are averaged from three biological replicates and standard error represented by error bars for each averaged data point (empty squares). The compound concentrations are represented on log scale on the x-axis in μM units. Data were analyzed using free software called DrFit, as described in Nature Scientific Reports, Article number: 14701, (2015). […]
(§2) The Cell Titer Blue reagent (available from Promega, Inc.) is a buffered solution containing resazurin, a compound that is converted to resorufin, a detectable fluorescent product, by metabolically active cells. The fluorescence intensity of resorufin product therefore serves as a proportional measure of the number of viable cells, permitting changes in cell viability within cancer or other cell lines to be monitored in response to the addition of cytotoxic or cytostatic agents. […] Metastases to the lungs may be conveniently quantified by a well-established clonogenic assay. […]

[3] = system: HEPG2 human liver carcinoma cells; assay: Cell Titer Blue in vitro cell viability assay, HEPG2; settings: 72 h, HEPG2 (DMEM), 3 days at 37° C.
Method: as §1, with “12:” for “9:”, “HEPG2” for “MDA-MB-468”, “HEPG2” for “MDA-MB-468 triple-negative”, “liver carcinoma” for “breast cancer”
as §2

[4] = system: SK-N-SH human neuroblastoma cells; assay: Cell Titer Blue in vitro cell viability assay, SK-N-SH; settings: 72 h, SK-N-SH (DMEM), 3 days at 37° C.
Method: as §1, with “15:” for “9:”, “SK—N—SH” for “MDA-MB-468”, “SK—N—SH” for “MDA-MB-468 triple-negative”, “neuroblastoma” for “breast cancer”
as §2

pIC50 ([1]; MDA-MB-231 (DMEM)): 4.83 | pIC50 ([1]; MDA-MB-231 (MEGM)): 5.05 | pIC50 [2]: 4.80 | pIC50 [3]: 4.60 | pIC50 [4]: 4.46
SMILES: CCCCCCCCCCCCCCCC(=O)N[C@H](Cc1c[nH]cn1)C(=O)N[C@@H](C(=O)OCC)C(C)C [Compound 5, N-[N-(1-oxohexadecyl)-D-histidyl]-D-valine ethyl ester] (Palmitoyl-[dH]-[dV]-OEt)
